Assay results as given in patent US20080287480A1, “Therapeutic Combination Comprising a Nmda Receptors Blocker and a Narcotic Analgesic Substance” (Chiesi Farmaceutici S.p.A., priority 2005, published 2008).
Like-named read-outs stand apart in the source and are kept apart here.

Tests used:
[1] = system: Neuropathic rats; experiment: Cold allodynia (chilled metal floor) in chronic constriction injury model of neuropathic pain; assay type: in vivo, rat; details: mean ± s.e.m.; 60 minutes after treatment; 5±1° C. floor; CHF3381 30 mg/kg p.o., morphine 0.1 mg/kg s.c., alone or combined; vehicle 2.90±0.41 s
Procedure: (§1) The animal model of chronic pain was the same of Example 1.
Neuropathic rats were placed upon a metal floor chilled by an underlying water bath (5±1° C.) for a maximum of 20 s. The animals responded to the contact with the cold surface by lifting the paw on the ligated side off the floor. […] For each set of experiments, animals were pre-screened twice with 20 min interval between tests, in order to select animals displaying clear signs of allodynia, i.e. animals with a paw withdrawal latency on the ligated side of <10 s in both trials. […] The latency to paw withdrawal was then determined at 60 minutes after the administration of vehicle, CHF3381 (30 mg/kg p.o.) alone, morphine (0.1 mg/kg s.c.) alone or their combination.

[2] = system: mice; details: mean ± s.e.m.
Procedure: The animal model of inflammatory was a slight modification of the mouse paw formalin test originally described by Wheeler-Aceto H et al in Psychopharmacology 104, 35-44 (1991). Before formalin injection, mice were placed individually into clear plastic cylinders. After adaptation to the cage, 20 μl of 1% formalin was injected into the plantar surface of the left hind paw. Morphine was administered 30 min before formalin injection.
Mice, divided randomly into eight groups (13-16 animals/group), received treatment once daily for 4 days as follows: groups g1 and g2 received saline, 10 ml/kg i.p.; groups g3 and g4 received morphine 50 mg/kg i.p.; group g5 received morphine 50 mg/kg and CHF3381 30 mg/kg i.p.; group g6 received morphine 50 mg/kg and CHF3381 60 mg/kg i.p. On day 5, the mice received saline (g1 and g3), or morphine 6 mg/kg, i.p. (g2, g4, g5 and g6).
The amount of time, in seconds, the animals spent licking and flinching the injected paw from 10 to 40 min after formalin injection, was used as measurement of pain intensity.
The level of significance was set at P<0.05.

[3] = system: Neuropathic rats; experiment: Mechanical hyperalgesia (analgesymeter, Randall method) in chronic constriction injury model of neuropathic pain; assay type: in vivo, rat; details: mean ± s.e.m.; CHF3381 30 mg/kg p.o., morphine 0.1 mg/kg s.c., alone or combined; cut-off 500 g; vehicle 105.7±8.2 g
Procedure: as §1
Nerve injured rats developed mechanical hyperalgesia […]. Indeed, in these animals the mean paw threshold was decreased to about 110 g on the ligated side compared to the contralateral side (about 350 g; P<0.01).
Mechanical hyperalgesia was assessed in neuropathic rats by using an analgesymeter according to the method reported in Randall L O et al (Arch Int Pharmacodyn Ther 1957, 111, 409-419). Mechanical nociceptive thresholds were evaluated by measuring paw withdrawal thresholds to an increasing pressure stimulus applied to the distal portion of the plantar surface of the hind paw. The site of the stimulation was on area of the hind paw between the pads at the base of the third and forth digit. A cut-off was set at 500 g to prevent any tissue damage and the endpoint was taken as a complete paw withdrawal.

[4] = system: Nerve injured rats; experiment: Mechanical allodynia (Electronic Von Frey) in chronic constriction injury model of neuropathic pain; assay type: in vivo, rat; details: MPE ± s.e.m.; 60 minutes after administration; CHF3381 30 mg/kg p.o., morphine 0.1 mg/kg s.c., alone or combined; vehicle 0.15±0.06
Excerpt: The animal model of chronic pain was a slight modification of the chronic constriction injury model of neuropathic pain originally described by Bennett G J et al in Pain 1988, 33, 87-107.
Nerve injured rats were placed on an elevated screen in a clear testing chamber and allowed to acclimate to the testing environment before any measurements were taken. The mechanical stimulus was delivered underneath to the plantar surface of the left hind paw of the rat by using the automated testing device Electronic Von Frey.
A steel rod was pushed against the hind paw with ascending force. The ramping of the force went from 0 to 50 g over a 20 s period. When the animal withdrew its hind paw, the mechanical stimulus was automatically withdrawn and the force at which the animal withdrew its paw was recorded. To quantify the mechanical sensitivity of the hind paws, withdrawal thresholds were taken from five consecutive trials with at least 10 s between each trial. The withdrawal threshold was taken to be the mean of the five trials (baseline value). […]
The values are expressed as Maximum Possible Effect (MPE)±s.e.m
The MPE value was calculated as follow: MPE=(PDR−IBR)/(CBR−IBR), where PDR is the post drug response of the ipsilateral paw, IBR is the ipsilateral paw baseline response and CBR is the contralateral paw baseline response. […]

CN1CC[C@]23c4c5ccc(O)c4O[C@H]2[C@@H](O)C=C[C@H]3[C@H]1C5 [morphine]
mean paw withdrawal latency (cold allodynia) [1]: 5.17 ± 0.86 s | mean licking time, 10 to 40 min after formalin injection ([2]; g2: saline i.p. days 1-4, morphine 6 mg/kg i.p. day 5, saline control g1 119.9±17.0): 65.9 ± 18.3 s | mean licking time, 10 to 40 min after formalin injection ([2]; g3: morphine 50 mg/kg i.p. days 1-4, saline i.p. day 5): 143.9 ± 19.2 s | licking time, 10 to 40 min after formalin injection ([2]; g4: morphine 50 mg/kg i.p. days 1-4, morphine 6 mg/kg i.p. day 5): 112.1 ± 13.4 s | Paw withdrawal threshold (mechanical hyperalgesia) [3]: 105.8 ± 6.0 g | Maximum Possible Effect (MPE) on paw withdrawal threshold to mechanical stimulation [4]: 0.21±0.07
